Results published in ChEMBL document CHEMBL5120927, “LEGO-Lipophosphonoxins: A Novel Approach in Designing Membrane Targeting Antimicrobials” (J Med Chem, 2022).

Experiments:
Enterococcus faecalis = test: Antibacterial activity against Enterococcus faecalis ATCC 29212 = CCM 4224 assessed as inhibition of bacterial growth incubated for 24 hrs by microdilution assay; type: functional
Staphylococcus aureus [1] = test: Antibacterial activity against Staphylococcus aureus ATCC 29213 = CCM 4223 assessed as inhibition of bacterial growth incubated for 24 hrs by microdilution assay; type: functional
Staphylococcus aureus [2] = test: Antibacterial activity against Staphylococcus aureus ATCC 29213 = CCM 4223 assessed as inhibition of bacterial growth incubated for 24 hrs in presence of BSA by microdilution assay; type: functional
Escherichia coli [3] = test: Antibacterial activity against Escherichia coli ATCC 25922 = CCM 3954 assessed as inhibition of bacterial growth incubated for 24 hrs by microdilution assay; type: functional
Escherichia coli [4] = test: Antibacterial activity against Escherichia coli ATCC 25922 = CCM 3954 assessed as inhibition of bacterial growth incubated for 24 hrs in presence of BSA by microdilution assay; type: functional
Pseudomonas aeruginosa [5] = test: Antibacterial activity against Pseudomonas aeruginosa ATCC 27853 = CCM 3955 assessed as inhibition of bacterial growth incubated for 24 hrs by microdilution assay; type: functional
[6] = Hemolytic activity in human RBC assessed as haemoglobin release measured after 3 hr; type: toxicity, cell-based, Erythrocyte; settings: red blood cells (erythrocytes)
[7] = Gradient chromatographic hydrophobicity index of the compound at pH 3.7 by HPLC analysis; type: ADME
[8] = tested on: Staphylococcus epidermidis; test: Antibacterial activity against Staphylococcus epidermidis CCM 7221 assessed as inhibition of bacterial growth incubated for 24 hrs by microdilution assay; type: functional
Staphylococcus aureus [9] = test: Antibacterial activity against methicillin resistant Staphylococcus aureus 4591/A assessed as reduction in microbial growth incubated for 24 hrs by microdilution assay; type: functional
Escherichia coli [10] = test: Antibacterial activity against multidrug-resistant Escherichia coli CE5556 expressing CTX-M-15 assessed as reduction in microbial growth incubated for 24 hrs by microdilution assay; type: functional
Enterococcus faecium = test: Antibacterial activity against vancomycin resistant Enterococcus faecium 419/ANA assessed as reduction in microbial growth incubated for 24 hrs by microdilution assay; type: functional
Pseudomonas aeruginosa [11] = test: Antibacterial activity against multidrug-resistant Pseudomonas aeruginosa assessed as reduction in microbial growth incubated for 24 hrs by microdilution assay; type: functional

SMILES | MIC (Enterococcus faecalis) [µg/mL] | MIC (Staphylococcus aureus [1]) [µg/mL] | MIC (Staphylococcus aureus [2]) [µg/mL] | MIC (Escherichia coli [3]) [µg/mL] | MIC (Escherichia coli [4]) [µg/mL] | MIC (Pseudomonas aeruginosa [5]) [µg/mL] | HC50 at 3 h [6] [µg/mL] | CHI [7] | MIC [8] [µg/mL] | MIC (Staphylococcus aureus [9]) [µg/mL] | MIC (Escherichia coli [10]) [µg/mL] | MIC (Enterococcus faecium) [µg/mL] | MIC (Pseudomonas aeruginosa [11]) [µg/mL]
CCCCCCCCCOP(=O)(CCN(CCCN)CCCN)OCCOCc1ccc(OC)cc1.Cl.Cl.Cl (configuration not stated) | 16 | 16 | 128 | 32 | > 133 | 16 | 55 |  |  |  |  |  | 
CCCCCCCCCCCCCCCOP(=O)(CCN(CCCN)CCCN)OCC.Cl.Cl.Cl (configuration not stated) | 2 | 2 | > 128 | 1 | > 129 | 2 | 6.9 |  |  |  |  |  | 
CCCCCCCCOP(=O)(CCN(CCN)CCN)OCCCCCCCCOP(=O)(CCN(CCN)CCN)OCCCCCCCC.Cl.Cl.Cl.Cl.Cl.Cl (configuration not stated) | 1 | 0.5 | 0.2 | 64 | 5 | 1 | 19 | 45.2 | 0.2 | 3 | 1 | 2 | 1
CCCCCCOP(=O)(CCN(CCCN)CCCN)OCCc1cccc2ccccc12.Cl.Cl.Cl (configuration not stated) | 64 | 64 | > 128 | > 128 | > 131 | 64 | > 100 |  |  |  |  |  | 
CCCCCCCCCCCCCCOP(=O)(CCN(CCCN)CCCN)OCC.Cl.Cl.Cl (configuration not stated) | 4 | 4 | > 128 | 4 | > 128 | 4 | 12.2 |  |  |  |  |  | 
CCCCCCCCOP(=O)(CCN(CCCN)CCCN)OCCCOP(=O)(CCN(CCCN)CCCN)OCCCCCCCC.Cl.Cl.Cl.Cl.Cl.Cl (configuration not stated) | 8 | 2 | 2 | 2 | 4 | 16 | > 500 | 35.5 | 2 | 2 | 4 | 64 | 8
CCCCOP(=O)(CCN(CCCN)CCCN)OCCCCCCCCCCCCOP(=O)(CCN(CCCN)CCCN)OCCCC.Cl.Cl.Cl.Cl.Cl.Cl (configuration not stated) | 32 | 4 | 16 | 128 | 128 | 32 | > 500 | 31.4 | 1 | 4 | > 128 | > 128 | 16
CCCCCCCCCCOP(=O)(CCN(CCCN)CCCN)OCCCOP(=O)(CCN(CCCN)CCCN)OCCCCCCCCCC.Cl.Cl.Cl.Cl.Cl.Cl (configuration not stated) | 1 | 1 | 1 | 1 | 4 | 2 | 31.6 | 43.7 | 1 | 1 | 1 | 4 | 2
Cl.Cl.Cl.Cl.Cl.Cl.NCCCN(CCCN)CCP(=O)(OCCCCCCOP(=O)(CCN(CCCN)CCCN)OCCC12CC3CC(CC(C3)C1)C2)OCCC12CC3CC(CC(C3)C1)C2 (configuration not stated) | 1 | 0.5 | 0.2 | > 128 | 1 | 1 | 72.2 | 38.4 | 0.5 | 0.5 | 1 | 2 | 2
CCCCCCCOP(=O)(CCN(CCCN)CCCN)OCCCCOP(=O)(CCN(CCCN)CCCN)OCCCCCCC.Cl.Cl.Cl.Cl.Cl.Cl (configuration not stated) | 64 | 4 | 8 | 8 | 32 | 128 | > 200 | 30.7 | 2 | 4 | 64 | > 128 | 128
CCCCCOP(=O)(CCN(CCCN)CCCN)OCCCCCCCCCCCCOP(=O)(CCN(CCCN)CCCN)OCCCCC.Cl.Cl.Cl.Cl.Cl.Cl (configuration not stated) | 2 |  | 8 | 16 | 16 | 4 | 444 | 34.7 | 0.5 | 1 | 32 | 16 | 4
CCCCCCCCCCCCOP(=O)(CCN(CCCN)CCCN)OCCCCCCCCCCCC.Cl.Cl.Cl | 25 | 100 |  | 100 |  | 100 | 11.3 |  |  |  |  |  | 
CCCCCCCCCOP(=O)(CCN(CCCN)CCCN)OCCOCc1ccccc1.Cl.Cl.Cl (configuration not stated) | 32 | 32 | > 128 | 64 | > 128 | 64 | 79.8 |  |  |  |  |  | 
CCCCCCCCCOP(=O)(CCN(CCCN)CCCN)OCCc1ccc(Cl)cc1.Cl.Cl.Cl (configuration not stated) | 2 | 2 | 64 | 2 | 64 | 8 | 17.3 |  |  |  |  |  | 
